Common to all, as to assay: NCI tumour cell line growth inhibition, 48 h
The test system of assay [1] is SNB-78.
The subject of assay [2] is DLD-1.
For assay [3], the system named is XF498.
Assay [4] relates to LXFL 529.
The subject of assay [5] is M19-MEL.
For assay [6], the system named is HOP-18.
Assay [7] has as its system DMS-273.
The subject of assay [8] is DMS-114.
For assay [9], the system named is RXF 631.

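Protocol summary: plate cells (96-well), add compound at 5 concentrations, incubate 48 h, interpolate endpoints linearly. GI50 marks 50% less growth.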 The source made the active and inactive calls. No stated cut-off is given here; in the data, active = GI50 up to about 1.1 µM and inactive = higher.

The record followed here is ChEMBL document CHEMBL1201862, “PubChem BioAssay data set” (2004).

`Oc1cc(-c2ccc3c(c2)OCO3)nc2cc3c(cc12)OCO3`: the GI50 is 43 µM (inactive) in assay [1]; 55.8 µM (inactive) in assay [2]; 31.8 µM (inactive) in [3]; 68.4 µM (inactive) in [4]; 20.5 µM (inactive) in assay [5]; 72.6 µM (inactive) in [6]. The GI50 in [7] was 21.3 µM (inactive).

Regarding `COc1ccc(C(O)/C(=C/n2ccnc2)c2ccccc2)cc1OC` (centres undefined), the GI50 in [2], in assay [3], in assay [8], in assay [9], in [5] and in assay [6] was > 100 µM (inactive) each time. In addition, the GI50 in assay [7] is > 100 µM (inactive).

Consider `C=CCNC(=O)NCCCCC(NC(C)=O)C(=O)NCc1ccccc1` (centres undefined), for which the GI50 in assay [3], in assay [8], in [4], in assay [5], in [6] and in assay [7] was > 100 µM (inactive) each time.

For the molecule `CC1(C)C(=O)/C=C\C(=O)C(C)(C)C(=O)/C=C\C(=O)C(C)(C)C2=CC=C(O2)C(C)(C)C(=O)/C=C\C1=O`, the GI50 was 3.71 µM (inactive) in assay [1]; 1.72 µM (inactive) in assay [2]; 1.88 µM (inactive) in assay [3]; 8.26 µM (inactive) in assay [8]; 7.82 µM (inactive) in assay [9]; 2.4 µM (inactive) in assay [4]. Besides, the GI50 is 5.86 µM (inactive) in [5], 22.5 µM (inactive) in assay [6] and 2.94 µM (inactive) in assay [7].

Take `Cc1ccc(C(=O)N2CCN(C(=O)c3ccc(C)cc3)c3ccccc32)cc1`: the GI50 was 6.97 µM (inactive) in [1]; 4.23 µM (inactive) in assay [2]; 4.93 µM (inactive) in [3]; 3.78 µM (inactive) in assay [8]; 6.5 µM (inactive) in [4]; 4.39 µM (inactive) in assay [5]. Besides, the GI50 in [6] was 17.7 µM (inactive); in [7], 2.05 µM (inactive).

Consider `COc1ccc2c(c1)Oc1cc(O)ccc1[C@@H]2c1ccccc1C(=O)NC(C)c1ccccc1` (some centres undefined), for which the GI50 in assay [1] was 13.3 µM (inactive); in assay [2], 13.9 µM (inactive); in [8], 12.7 µM (inactive); in assay [4] it was 14.2 µM (inactive); in assay [5], 15.9 µM (inactive); in [7], 14.3 µM (inactive).

For `CCN(CC)CC(C(=O)Nc1c(C)cccc1C)/C(C)=N\NC(=O)c1ccncc1` (centres undefined), the GI50 in assay [1], in [2], in [3], in assay [8], in assay [9] and in assay [4] was > 100 µM (inactive) in each case. Further, the GI50 in assay [5], in assay [6] and in [7] was > 100 µM (inactive) in each case.

On to `CCOC(=O)C1=C(C)N(NC(N)=O)C2(N)N(NC(N)=O)C(C)=C(C(=O)OCC)C12C#N` (centres undefined), for which the GI50 in assay [2], in assay [3], in assay [8], in [9], in [4] and in [5] was > 100 µM (inactive) each time. For the same molecule, the GI50 in assay [7] is > 100 µM (inactive).

As to `Cc1ccc(NC(=O)CC/C(CC(=O)C(C)(C)C)=N\NC(=O)C[n+]2ccccc2)cc1C`, the GI50 is > 100 µM (inactive) in assay [1]; 87.7 µM (inactive) in assay [3]; 73.6 µM (inactive) in assay [8]; > 100 µM (inactive) in assay [4]; > 100 µM (inactive) in assay [5]; > 100 µM (inactive) in [6]. For the same molecule, the GI50 in assay [7] is > 100 µM (inactive).

Take `COC(=O)N/N=C(\C(=O)Nc1cccc([N+](=O)[O-])c1)c1nc2ccc([N+](=O)[O-])cc2nc1O`: the GI50 in assay [2] is > 100 µM (inactive); in assay [3], 0.494 µM (active); in assay [8] it was 8.09 µM (inactive); in [4] it was 27.7 µM (inactive); in assay [5], 74.3 µM (inactive); in assay [6], > 100 µM (inactive).

With `O=C(O)CNS(=O)(=O)c1ccc(NC(=O)CI)cc1`, the GI50 in assay [2] was 26.9 µM (inactive); in assay [3], 14.6 µM (inactive); in [9] it was 16.4 µM (inactive); in assay [4], 6.97 µM (inactive); in assay [5], 32.4 µM (inactive); in assay [6], 34.3 µM (inactive). Further, the GI50 in assay [7] is 17.7 µM (inactive).

With `COP(=O)(OC)C(NC(=O)C(F)(F)F)(c1ccccc1)C(F)(F)F` (centres undefined), the GI50 in [2], in [3], in assay [8], in assay [5], in [6] and in assay [7] was > 100 µM (inactive) in each case.

As to `O=[N+]([O-])c1cnn(C2=CNc3ccccc3N=C2)c1`, the GI50 in assay [1], in assay [2], in assay [3], in [9], in [5] and in assay [6] was > 100 µM (inactive) throughout. For the same molecule, the GI50 in assay [7] was > 100 µM (inactive).

Take `O=C1CC[C@@H](S(=O)(=O)c2ccccc2)[C@@H](/C=C/c2ccccc2)O1`: the GI50 in assay [3] was < 0.01 µM (active); in assay [8], > 100 µM (inactive); in assay [4] it was > 100 µM (inactive); in [5] it was > 100 µM (inactive); in [6], > 100 µM (inactive).

For the molecule `Cc1ccc2c(ccc(/C=C\c3cc(C)c4cccnc4c3O)[n+]2C)c1`, the GI50 in assay [2] was 0.849 µM (active); in assay [8], 0.811 µM (active); in assay [4], 0.3 µM (active); in [6] it was 1.81 µM (inactive); in assay [7] it was 0.352 µM (active).

Turning to `CC(C)(C)CC(C)(C)NCC(O)COc1ccc(C(C)(C)c2ccc(OCC(O)CNC(C)(C)CC(C)(C)C)cc2)cc1` (centres undefined), the GI50 was 1.95 µM (inactive) in [1]; 0.832 µM (active) in assay [2]; 1.64 µM (inactive) in [3]; 1.76 µM (inactive) in assay [8]; 0.357 µM (active) in assay [4]; 1.53 µM (inactive) in assay [5]. Also, the GI50 in [7] was 1.04 µM (active).

As to `COC(=O)C1=C(C[S+]([O-])c2ccc([N+](=O)[O-])cc2[N+](=O)[O-])C2C=CC1C2` (centres undefined), the GI50 in [1] is 48.3 µM (inactive); in [2], 19.1 µM (inactive); in assay [3], 28.5 µM (inactive); in assay [8], 23.4 µM (inactive); in [9] it was 17.8 µM (inactive); in [4], 22.2 µM (inactive). Further, the GI50 in assay [5] is 20.1 µM (inactive); in [6] it was 29.4 µM (inactive); in assay [7], 20.2 µM (inactive).

With `N#CC(C#N)=c1ccc(=C2NCC3CCCN23)cc1` (centres undefined), the GI50 in assay [1], in assay [8], in [4], in assay [5], in assay [6] and in [7] was > 100 µM (inactive) each time.

On to `CC(=O)NC1=C(Nc2ccc(C)cc2)C(=O)c2ccccc2C1=O`, for which the GI50 is 44.9 µM (inactive) in assay [1]; 19.7 µM (inactive) in [2]; 24.9 µM (inactive) in assay [3]; 14.5 µM (inactive) in assay [8]; 23.6 µM (inactive) in assay [4]; 8.43 µM (inactive) in [5]. Moreover, the GI50 in assay [6] was 12.2 µM (inactive); in assay [7], 16.5 µM (inactive).

With `CCOC(=O)/C(C)=C(/O)C(=O)OCC`, the GI50 in [1], in assay [2], in assay [3], in [8], in assay [9] and in [4] was > 100 µM (inactive) throughout. Also, the GI50 in assay [6] and in [7] was > 100 µM (inactive) each time.

Turning to `COC1O[C@@H]2COC(C)(C)O[C@@H]2C(=O)N1Nc1ccc([N+](=O)[O-])cc1` (some centres undefined), the GI50 in assay [2] was 35.1 µM (inactive); in assay [3], > 100 µM (inactive); in assay [4] it was 55.1 µM (inactive); in assay [5] it was > 100 µM (inactive); in assay [6], > 100 µM (inactive); in [7] it was > 100 µM (inactive).

`COC(=O)[C@@]12C3=NO[C@]1(C(=O)OC)C(O[Si](C)(C)C(C)(C)C)C1OC(C)(C)OC1[C@@H]2[C@@H](OCc1ccccc1)CC3` (some centres undefined): the GI50 in assay [2] was > 100 µM (inactive); in assay [8], 49.5 µM (inactive); in [4] it was 46.3 µM (inactive); in assay [5], > 100 µM (inactive); in assay [6] it was > 100 µM (inactive); in assay [7] it was 51.4 µM (inactive).

`CC(C)(O)C(O)COc1c2c(cc3oc(=O)ccc13)OCO2` (centres undefined): the GI50 in assay [2], in assay [3], in assay [8], in assay [4], in [5] and in [6] was > 100 µM (inactive) throughout. In addition, in assay [7], the GI50 is > 100 µM (inactive).
